Where a name gives a salt, the structure may show the parent alone.
Tests used:
human mGlu 5a receptor = biological target: T1, human mGlu 5a receptor (Homo sapiens, UniProt P41594); assay: [3H]MPEP competition binding on membranes of EBNA cells transfected with human mGlu 5a receptor; conditions: read-out: Ki (mGluR5)
T1 construct: expressed in transfected cells; host or cells: EBNA cells (transient transfection); cell membrane homogenates
Description: For binding experiments, cDNA encoding human mGlu 5a receptor was transiently transfected into EBNA cells using a procedure described by Schlaeger and Christensen [Cyto-technology 15:1–13 (1998)]. Cell membrane homogenates were stored at −80° C. until the day of assay where upon they were thawed and resuspended and polytronised in 15 mM Tris-HCl, 120 mM NaCl, 100 mM KCl, 25 mM CaCl2, 25 mM MgCl2 binding buffer at pH 7.4 to a final assay concentration of 20 μg protein/well.
Saturation isotherms were determined by addition of twelve [^3H]MPEP concentrations (0.04–100 nM) to these membranes (in a total volume of 200 μl) for 1 h at 4° C. Competition experiments were performed with a fixed concentration of [^3H]MPEP (2 nM) and IC50 values of test compounds evaluated using 11 concentrations (0.3–10,000 nM). Incubations were performed for 1 h at 4° C.
At the end of the incubation, membranes were filtered onto unifilter (96-well white microplate with bonded GF/C filter preincubated 1 h in 0.1% PEI in wash buffer, Packard BioScience, Meriden, Conn.) with a Filtermate 96 harvester (Packard BioScience) and washed 3 times with cold 50 mM Tris-HCl, pH 7.4 buffer. Nonspecific binding was measured in the presence of 10 μM MPEP. The radioactivity on the filter was counted (3 min) on a Packard Top-count microplate scintillation counter with quenching correction after addition of 45 μl of microscint 40 (Canberra Packard S. A., Zürich, Switzerland) and shaking for 20 min.
The inhibition (antagonists) curves were fitted with a four parameter logistic equation giving IC50, and Hill coefficient using an iterative non linear curve fitting software (Xcel fit).
The Ki value is defined by the following formula: Ki=IC50/[1+L/Kd] in which the IC50 values are those concentrations of the compounds tested which cause 50% inhibition of the competing radioligand ([^3H]MPEP). L is the concentration of radioligand used in the binding experiment and the Kd value of the radioligand is empirically determined for each batch of membranes prepared.

T1 sequence (P41594 21-1180 isoform P41594-2 limits assumed): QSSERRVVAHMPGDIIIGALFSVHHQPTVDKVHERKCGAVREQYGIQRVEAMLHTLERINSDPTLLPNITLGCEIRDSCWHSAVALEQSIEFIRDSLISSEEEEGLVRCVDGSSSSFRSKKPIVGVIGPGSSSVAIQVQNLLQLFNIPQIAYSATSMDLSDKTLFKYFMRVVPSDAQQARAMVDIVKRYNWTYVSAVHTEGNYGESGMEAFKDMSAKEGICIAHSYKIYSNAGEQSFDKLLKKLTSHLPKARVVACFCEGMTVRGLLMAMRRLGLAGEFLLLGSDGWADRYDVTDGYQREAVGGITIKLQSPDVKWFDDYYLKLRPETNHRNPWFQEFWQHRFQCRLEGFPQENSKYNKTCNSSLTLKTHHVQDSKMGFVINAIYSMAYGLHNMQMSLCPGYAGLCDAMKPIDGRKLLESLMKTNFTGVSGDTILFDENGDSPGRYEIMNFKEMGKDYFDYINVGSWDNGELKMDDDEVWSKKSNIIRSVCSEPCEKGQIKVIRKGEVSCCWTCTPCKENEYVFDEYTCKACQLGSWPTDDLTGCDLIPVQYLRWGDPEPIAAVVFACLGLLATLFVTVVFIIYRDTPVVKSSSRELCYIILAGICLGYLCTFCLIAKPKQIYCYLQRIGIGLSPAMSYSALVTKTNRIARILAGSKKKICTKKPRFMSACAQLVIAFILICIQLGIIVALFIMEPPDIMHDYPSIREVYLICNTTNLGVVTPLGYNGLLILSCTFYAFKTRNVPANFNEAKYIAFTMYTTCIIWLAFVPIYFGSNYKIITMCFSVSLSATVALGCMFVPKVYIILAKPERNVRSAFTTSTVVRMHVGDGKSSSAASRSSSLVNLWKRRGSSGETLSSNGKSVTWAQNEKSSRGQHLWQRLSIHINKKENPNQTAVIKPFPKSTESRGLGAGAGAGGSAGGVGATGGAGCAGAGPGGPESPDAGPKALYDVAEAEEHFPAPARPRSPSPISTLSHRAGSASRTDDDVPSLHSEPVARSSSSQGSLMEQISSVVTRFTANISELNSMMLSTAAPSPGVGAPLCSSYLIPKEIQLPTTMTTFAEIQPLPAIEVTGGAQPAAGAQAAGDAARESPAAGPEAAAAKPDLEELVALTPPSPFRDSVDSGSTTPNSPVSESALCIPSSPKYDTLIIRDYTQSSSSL

Row | melting point | Ki (human mGlu 5a receptor) | SMILES
1 | 145 to 147 °C |  | COc1cc(-n2cc(C#Cc3ccnc(C)c3)nc2C)ccn1 (as salt: HCl) [Compound 69, 2-Methoxy-4-[2-methyl-4-(2-methyl-pyridin-4-ylethynyl)-imidazol-1-yl]-pyridine]
2 | 151 °C |  | Cc1cc(C#Cc2cn(-c3ccc(F)cc3)c(C)n2)ccn1 [Compound 1, 4-[1-(4-Fluoro-phenyl)-2-methyl-1H-imidazol-4-ylethynyl]-2-methyl-pyridine]
3 |  | 18 nM | Cc1cc(C#Cc2cn(-c3ccc(Cl)c(Cl)c3)c(C)n2)ccn1 [Compound 2, 4-[1-(3,4-Dichloro-phenyl)-2-methyl-1H-imidazol-4-ylethynyl]-2-methyl-pyridine hydrochloride]
4 |  | 25 nM | Cc1cc(C#Cc2cn(-c3ccc(F)c(F)c3)c(C)n2)ccn1 [Compound 4, 4-[1-(3,4-difluoro-phenyl)-2-methyl-1H-imidazol-4-ylethynyl]-2-methyl-pyridine]
5 |  | 24 nM | Cc1cc(C#Cc2cn(-c3cccc(C(F)(F)F)c3)c(C)n2)ccn1 [Compound 7, 2-methyl-4-[2-methyl-1-(3-trifluoromethyl-phenyl)-1H-imidazol-4-ylethynyl]-pyridine]
6 | 164 to 165 °C | 74 nM | Cc1cc(C#Cc2cn(-c3ncccn3)c(C)n2)ccn1 [Compound 8, 2-[2-Methyl-4-(2-methyl-pyridin-4-ylethynyl)-imidazol-1-yl]-pyrimidine]
7 |  | 45 nM | Cc1cc(C#Cc2cn(-c3ccc4c(ccn4C)c3)c(C)n2)ccn1 [Compound 18, 1-methyl-5-[2-methyl-4-(2-methyl-pyridin-4-ylethynyl)-imidazol-1-yl]-1H-indole]
8 |  | 17 nM | Cc1cc(C#Cc2cn(-c3nccc(C(F)(F)F)n3)c(C)n2)ccn1 [Compound 21, 2-[2-methyl-4-(2-methyl-pyridin-4-ylethynyl)-imidazol-1-yl]-4-trifluoromethyl-pyrimidine]
9 |  | 18 nM | COc1ccnc(-n2cc(C#Cc3ccnc(C)c3)nc2C)n1 [Compound 22, 4-methoxy-2-[2-methyl-4-(2-methyl-pyridin-4-ylethynyl)-imidazol-1-yl]-pyrimidine]
10 |  | 25 nM | Cc1cc(C#Cc2cn(-c3nccc(Cl)n3)c(C)n2)ccn1 [Compound 29, 4-chloro-2-[2-methyl-4-(2-methyl-pyridin-4-ylethynyl)-imidazol-1-yl]-pyrimidine]
11 |  | 27 nM | Cc1cc(C#Cc2cn(-c3cncc(C4CC4)n3)c(C)n2)ccn1 [Compound 56, 2-cyclopropyl-6-[2-methyl-4-(2-methyl-pyridin-4-ylethynyl)-imidazol-1-yl]-pyrazine]
12 |  | 16 nM | Cc1cc(C#Cc2cn(-c3cccc(C4CC4)n3)c(C)n2)ccn1 [Compound 57, 2-cyclopropyl-6-[2-methyl-4-(2-methyl-pyridin-4-ylethynyl)-imidazol-1-yl]-pyridine]
13 |  | 18 nM | COc1cccc(-n2cc(C#Cc3ccnc(C)c3)nc2C)n1 [Compound 68, 2-Methoxy-6-[2-methyl-4-(2-methyl-pyridin-4-ylethynyl)-imidazol-1-yl]-pyridine]
14 |  | 19 nM | Cc1cc(C#Cc2cn(-c3cccc(N(C)C)n3)c(C)n2)ccn1 [Compound 71, dimethyl-{6-[2-methyl-4-(2-methyl-pyridin-4-ylethynyl)-imidazol-1-yl]-pyridin-2-yl}-amine]
15 |  | 33 nM | Cc1cc(C#Cc2nc(C)n(-c3ccc(F)cc3)c2C)ccn1 [Compound 88, 4-[1-(4-Fluoro-phenyl)-2,5-dimethyl-1H-imidazol-4-ylethynyl]-2-methyl-pyridine]
16 |  | 65 nM | Cc1cc(C#Cc2nc(C)n(-c3ccc(F)cc3)c2C=O)ccn1 [Compound 89, 3-(4-Fluoro-phenyl)-2-methyl-5-(2-methyl-pyridin-4-ylethynyl)-3H-imidazole-4-carbaldehyde]
